# Molecular target: T1, human HSL (Homo sapiens, UniProt Q05469)
# T1 construct: generate a full length human HSL ORF with a 3′-His6 tag; made in house; host or cells: High 5 insect cells (baculovirus, pFast-BAC)
# T1 sequence (Q05469 1-1076): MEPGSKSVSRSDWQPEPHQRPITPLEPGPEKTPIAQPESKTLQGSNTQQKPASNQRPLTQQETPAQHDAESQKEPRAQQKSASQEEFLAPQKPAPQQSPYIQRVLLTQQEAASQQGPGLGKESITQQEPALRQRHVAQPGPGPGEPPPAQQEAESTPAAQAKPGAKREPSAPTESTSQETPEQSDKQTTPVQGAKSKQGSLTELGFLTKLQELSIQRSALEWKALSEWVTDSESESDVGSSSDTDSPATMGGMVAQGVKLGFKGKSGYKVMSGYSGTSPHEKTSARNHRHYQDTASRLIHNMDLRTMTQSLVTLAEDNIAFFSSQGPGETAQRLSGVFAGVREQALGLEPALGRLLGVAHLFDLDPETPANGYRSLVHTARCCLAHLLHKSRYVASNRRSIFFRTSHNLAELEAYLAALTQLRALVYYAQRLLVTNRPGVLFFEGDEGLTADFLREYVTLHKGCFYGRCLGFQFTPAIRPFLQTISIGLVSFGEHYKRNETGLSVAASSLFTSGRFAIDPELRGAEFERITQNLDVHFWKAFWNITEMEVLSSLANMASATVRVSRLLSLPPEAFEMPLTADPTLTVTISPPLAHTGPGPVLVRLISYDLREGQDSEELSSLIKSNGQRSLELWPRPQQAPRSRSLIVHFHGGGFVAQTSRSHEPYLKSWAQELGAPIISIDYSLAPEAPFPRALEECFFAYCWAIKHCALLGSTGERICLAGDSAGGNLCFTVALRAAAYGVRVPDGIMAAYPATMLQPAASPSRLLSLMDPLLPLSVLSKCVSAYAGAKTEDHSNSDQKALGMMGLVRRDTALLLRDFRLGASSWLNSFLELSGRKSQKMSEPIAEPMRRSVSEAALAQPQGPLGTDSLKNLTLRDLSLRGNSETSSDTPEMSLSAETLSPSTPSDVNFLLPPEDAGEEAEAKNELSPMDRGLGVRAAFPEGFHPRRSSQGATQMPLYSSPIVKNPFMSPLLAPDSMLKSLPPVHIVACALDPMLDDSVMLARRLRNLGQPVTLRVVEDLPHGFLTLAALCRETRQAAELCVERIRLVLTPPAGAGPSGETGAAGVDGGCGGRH
# Experiment: Human Hormone-Sensitive Lipase (HSL) enzyme inhibition assay (colorimetric, DMPT substrate)
# Format: biochemical
# Conditions: human full length HSL-His6, 2,3-dimercapto-1-propanol tributyrate substrate, 37° C. 20 minutes, absorbance at 405 nm; read-out: HSL hum IC50
# Procedure: Production of Human Full Length Hormone Sensitive Lipase-His^6:
# 1) Cloning: cDNA was prepared from commercial human brain polyA+ RNA and used as a template in overlapping PCR to generate a full length human HSL ORF with a 3′-His6 tag. This full length insert was cloned into the pFast-BAC vector and the DNA-sequence of several single clones was verified. DNA from a correct full length clone with the 3′His6 tag was used to transform the E. coli strain DH10BAC. Resulting bacmid DNA was used to generate a titered baculovirus stock for protein generation. The sequence of the encoded HSL conforms to Swissprot entry Q05469, with the additional C-terminal His6-tag. 2) Protein purification: Culture: 5.5 L, High 5 cells expressing human full length HSL-His^6, 48 hr., containing 25 μM E-64. Cell count: […], 90% viable. Cells were thawed. On ice, cells were suspended in Base Buffer containing 10% glycerol, 25 mM Tris-Cl, 300 mM NaCl, 10 mM imidazole, 10 mM 2-mercaptoethanol, 2 μg pepstatin/ml, 2 μg leupeptin/ml, 2 μg antipain/ml, pH 8.0 at 4° C. in a final volume of 475 ml with 3.75×10^7 cells/ml. […] was done at 3×30 sec., Lubrol PX was added to 0.2% final concentration followed by stirring for 15 min. at 4° C. and centrifugation at 25 k×g, 60 min., 4° C. Soluble proteins were mixed with 60 ml of pre-washed and equilibrated Ni-NTA Agarose (Qiagen 30210) followed by tumbling end-over-end, 45 min., 4° C., centrifugation 1000 rpm 5 min and letting resin settle 5 min. Supernatant was removed, the resin washed in the centrifuge vessel using 5 volumes of Base Buffer containing 0.2% Lubrol PX. Centrifugation was done again, then the supernatant discarded. The resin was poured onto a 0.8 μm membrane in a disposable filter unit (Nalge 450-0080), and washed with 5 volumes of Base Buffer containing 0.2% Lubrol PX. It was then washed with 30 volumes of Base Buffer containing 60 mM imidazole pH 7.5 at 4° C. The protein was eluated with 5 volumes of 25 mM Tris-Cl, 300 mM NaCl, 200 mM imidazole, 10 mM 2-mercaptoethanol, pH 7.5 at 4° C. by tumbling resin with buffer end-over-end, 30 min., 4° C. The resin was captured on a 0.2 μm membrane disposable filter unit (Millipore SCGP U02 RE) and the eluate collected in the reservoir. The eluate was concentrated using a 30 k MWCO centrifugal filter device (Sartorius Vivascience Vivacell 100, VC1022), to 20 ml. It was then dialyzed overnight at 4° C., two times against 2 L of 10% glycerol, 25 mM Tris-Cl, 300 mM NaCl, 0.2 mM EDTA, 0.2 mM DTT, pH 7.5 at 4° C. The protein was filtered using a 0.22 μm disposable filter unit (Millipore SCGP00525). The protein concentration was calculated from absorbance at 280 nm, using 280=0.67 cm-1 mg-1. Yield was 235 mg, total. The protein was stored at −80° C. Human Hormone-Sensitive Lipase (HSL) Enzyme Inhibition Assay:
# HSL enzyme activity was measured by a colorimetric assay using 2,3-dimercapto-1-propanol tributyrate (Aldrich, St. Louis, Mo.) as a substrate. Typically, 1.5 mM 2,3-dimercapto-1-propanol tributyrate (DMPT) in 100 mM MOPS, pH 7.2, 0.2 mg/ml fatty acid-free BSA was prepared by sonication at 4° C. to homogenous suspension. Test compounds (2 mM stock in DMSO) were diluted 3 fold in series in DMSO. Compound solutions were diluted 24 fold in 1.5 mM DMPT containing solution and 18 ul per well was added to 384-well microplates (Corning Costar). Twelve microliters per well of human HSL (15 ug/ml) was added and the reaction mixture was incubated at 37° C. for 20 minutes. Six microliters of 12 mM dithio-bis-(2-nitrobenzoic acid) (DTNB) in DMSO plus 1.2% SDS and 0.6% Triton X-100 were added and the mixture was incubated at room temperature for 15 minutes. Product production was monitored by reading absorbance at 405 nm on an Envision Reader (PerkinElmer Life and Analytical Sciences, Shelton, Conn.).
row,IC50,SMILES
1,80 nM,"O=C(NC1CC1)O[C@H]1CC[C@@]2(CCN(c3ccc(OC(F)(F)F)cc3)C2=O)CC1 [Example 29, Cyclopropyl-carbamic acid [(5α,8β)-1-oxo-2-(4-trifluoromethoxy-phenyl)-2-aza-spiro[4.5]dec-8-yl]ester]"
2,250 nM,"NC(=O)O[C@H]1CC[C@@]2(CCN(c3ccc(OC(F)(F)F)cc3)C2=O)CC1 [Example 30, Carbamic acid [(5α,8β)-1-oxo-2-(4-trifluoromethoxy-phenyl)-2-aza-spiro[4.5]dec-8-yl]ester]"
3,23700 nM,"COc1ccc(N2CC[C@]3(CC[C@H](O)CC3)C2=O)cc1 [Example 31, (5α,8α)-8-Hydroxy-2-(4-methoxy-phenyl)-2-aza-spiro[4.5]decan-1-one]"
4,900 nM,"CCc1ccc(N2CC[C@]3(CC[C@H](O)CC3)C2=O)cc1 [Example 32, (5α,8α)-2-(4-Ethyl-phenyl)-8-hydroxy-2-aza-spiro[4.5]decan-1-one]"
5,6000 nM,"O=C1N(CCc2ccc(F)cc2)CC[C@]12CC[C@H](O)CC2 [Example 33, (5α,8α)-2-[2-(4-Fluoro-phenyl)-ethyl]-8-hydroxy-2-aza-spiro[4.5]decan-1-one]"
6,800 nM,"CCc1ccc(CCN2CC[C@]3(CC[C@H](O)CC3)C2=O)cc1 [Example 34, (5α,8α)-2-[2-(4-Ethyl-phenyl)-ethyl]-8-hydroxy-2-aza-spiro[4.5]decan-1-one]"
7,16500 nM,"COc1ccc(CCN2CC[C@]3(CC[C@H](O)CC3)C2=O)cc1 [Example 35, (5α,8α)-8-Hydroxy-2-[2-(4-methoxy-phenyl)-ethyl]-2-aza-spiro[4.5]decan-1-one]"
8,210 nM,"CCCc1ccc(N2CC[C@]3(CC[C@H](O)CC3)C2=O)cc1 [Example 37, (5α,8α)-8-Hydroxy-2-(4-propyl-phenyl)-2-aza-spiro[4.5]decan-1-one]"
9,240 nM,"CC(C)c1ccc(N2CC[C@]3(CC[C@H](O)CC3)C2=O)cc1 [Example 38, (5α,8α)-8-Hydroxy-2-(4-isopropyl-phenyl)-2-aza-spiro[4.5]decan-1-one]"

# The next lines start with the molecule.
row,SMILES,IC50
1,"CNC(=O)O[C@H]1CC[C@@]2(CCN(c3ccc(OC(F)(F)F)cc3)C2=O)CC1 [Example 17, Methyl-carbamic acid [(5α,8β)-1-oxo-2-(4-trifluoromethoxy-phenyl)-2-aza-spiro[4.5]dec-8-yl]ester]",80 nM
2,"O=C(NCCc1ccccc1)O[C@H]1CC[C@@]2(CCN(c3ccc(OC(F)(F)F)cc3)C2=O)CC1 [Example 18, Phenethyl-carbamic acid [(5α,8β)-1-oxo-2-(4-trifluoromethoxy-phenyl)-2-aza-spiro[4.5]dec-8-yl]ester]",60 nM
3,"O=C1N(c2ccc(OC(F)(F)F)cc2)CC[C@]12CC[C@@H](Oc1cnccn1)CC2 [Example 19, (5α,8β)-8-(Pyrazin-2-yloxy)-2-(4-trifluoromethoxy-phenyl)-2-aza-spiro[4.5]decan-1-one]",140 nM
4,"O=C1N(c2ccc(OC(F)(F)F)cc2)CC[C@]12CC[C@@H](Oc1ncccn1)CC2 [Example 20, (5α,8β)-8-(Pyrimidin-2-yloxy)-2-(4-trifluoromethoxy-phenyl)-2-aza-spiro[4.5]decan-1-one]",100 nM
5,"Cc1ccc(O[C@H]2CC[C@@]3(CCN(c4ccc(OC(F)(F)F)cc4)C3=O)CC2)nn1 [Example 21, (5α,8β)-8-(6-Methyl-pyridazin-3-yloxy)-2-(4-trifluoromethoxy-phenyl)-2-aza-spiro[4.5]decan-1-one]",100 nM
6,"O=C(NCC1CC1)O[C@H]1CC[C@@]2(CCN(c3ccc(OC(F)(F)F)cc3)C2=O)CC1 [Example 22, (Cyclopropylmethyl)-carbamic acid [(5α,8β)-1-oxo-2-(4-trifluoromethoxy-phenyl)-2-aza-spiro[4.5]dec-8-yl]ester]",60 nM
7,"COCCO[C@H]1CC[C@@]2(CCN(c3ccc(OC(F)(F)F)cc3)C2=O)CC1 [Example 23, (5α,8β)-8-(2-Methoxy-ethoxy)-2-(4-trifluoromethoxy-phenyl)-2-aza-spiro[4.5]decan-1-one]",190 nM
8,"CCO[C@H]1CC[C@@]2(CCN(c3ccc(OC(F)(F)F)cc3)C2=O)CC1 [Example 24, (5α,8β)-8-Ethoxy-2-(4-trifluoromethoxy-phenyl)-2-aza-spiro[4.5]decan-1-one]",370 nM
9,"Cc1cnc(CNC(=O)O[C@H]2CC[C@@]3(CCN(c4ccc(OC(F)(F)F)cc4)C3=O)CC2)cn1 [Example 25, (5-Methyl-pyrazin-2-ylmethyl)-carbamic acid [(5α,8β)-1-oxo-2-(4-trifluoromethoxy-phenyl)-2-aza-spiro[4.5]dec-8-yl]ester]",80 nM
10,"CC(C)(O)CNC(=O)O[C@H]1CC[C@@]2(CCN(c3ccc(OC(F)(F)F)cc3)C2=O)CC1 [Example 26, (2-Hydroxy-2-methyl-propyl)-carbamic acid [(5α,8β)-1-oxo-2-(4-trifluoromethoxy-phenyl)-2-aza-spiro[4.5]dec-8-yl]ester]",110 nM
11,"O=C(NCCO)O[C@H]1CC[C@@]2(CCN(c3ccc(OC(F)(F)F)cc3)C2=O)CC1 [Example 27, (2-Hydroxy-ethyl)-carbamic acid [(5α,8β)-1-oxo-2-(4-trifluoromethoxy-phenyl)-2-aza-spiro[4.5]dec-8-yl]ester]",180 nM
12,"O=C(NCc1cnccn1)O[C@H]1CC[C@@]2(CCN(c3ccc(OC(F)(F)F)cc3)C2=O)CC1 [Example 28, (Pyrazin-2-ylmethyl)-carbamic acid [(5α,8β)-1-oxo-2-(4-trifluoromethoxy-phenyl)-2-aza-spiro[4.5]dec-8-yl]ester]",80 nM

# Source: US8440710B2, “HSL inhibitors useful in the treatment of diabetes” (Hoffmann-La Roche Inc., priority 2009, dated 2013)
